Experimental data from patent EP1101492A1, “NOVEL REMEDIES FOR ALLERGIC DISEASES” (FUJI YAKUHIN KOGYO KABUSHIKI KAISHA, priority 1998, dated 2000).

Key:
[1] = test system: mouse contact-type (type IV) dermatitis models; experiment: Type IV allergic dermatitis (oxazolone-induced auricle edema); type: in vivo, Balb/c mice; details: 50 mg/mL in ethanol
Procedure: Mice (male, Balb/c, 6 weeks old, 20 to 25 g) were sensitized by painting a 3% solution of oxazolone (100 µL) abdominally. Six days after sensitization, a 0.5% solution of oxazolone in acetone was painted on both sides of a right ear at a dose of 10 µL to raise auricle edema. An untreated group was painted with the solvent (acetone) alone onto both sides of a left ear of the same mouse at 10 µL. At 24 hours after edema-induction, each mouse was sacrificed with ether and an equivalent each of right and left auricles was stamped out with a puncher (diameter: 6 mm). Both left and right auricle sections were measure for their weight and each percent edema was calculated (Kazuo Ouchi (Ed.), "Seibutsu Yakukagaku Jikken Koza, Ensho To Allergy (Inflammation and Allergy) I-1", 1993, Hirokawa Publishing Co., Japan) Percent Edema (%) =((Right Auricular Segment Weight - Left Auricular Segment Weight))/(Left Auricular Segment Weight)× 100 [formula]
The solvent (ethanol) alone was painted on a left auricle at the same dose (treated group). Unsensitized mice were also treated for induction similarly and then treated with the compound of the present invention, only followed by examination for the potency of the compound of the present invention on auricles (unsensitized group). The number of animals used in the test was set 4 per group. […]

[2] = test system: guinea pig experimental bronchial asthma models; experiment: Experimental bronchial asthma model (ovalbumin inhalation): airway resistance and asthmatic death;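 note: female Std:Hartley guinea pigs sensitized by inhaling nebulized ovalbumin once daily for 8 consecutive days, 8 to 11 animals per group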
Procedure: Guinea pigs (female, Std:Hartley, 3 weeks old, 200 to 250 g) were individually housed in a plastic chamber (width, 200 mm; depth, 300 mm; height, 167 mm). Aqueous ovalbumin (10 mg/mL) was administered to the guinea pigs once a day for sensitization by 10 min. inhalation with a nebulizer (5B, Nippon Shoji K.K.: flow rate, 6 L/min.) at a dose of 10 mg/mL during 8 cosecutive days. On Day 7 after the final sensitization, the guinea pigs were housed in a plastic chamber and inhaled using a nebulizer with a solution of ovalbumin (10 mg/mL) in physiological saline for 1 min. for elicitation (Matsumoto, T., et al., The Journal of Pharmacology and Experimental Therapeutics, 269: 1236-1244, 1994). The number of animals employed in the experiment was set to the extent there are at least 6 as individuals escaping asthmatic death. A solution of a test compound (Compound No. 130, 15 mg/kg) in water for injection was administered subcutaneously twice, i.e., 24 hours and 2 hours prior to elicitation. Similarly, the solvent alone was also administered to a negative control group. A suspension of prednisolone (10 mg/kg) in 0.5% aqueous methyl cellulose was administered orally twice, i.e., 24 hours and 2 hours prior to elicitation. Similarly, the solvent alone was also administered to another control group.
The evaluation for efficacies was conducted in terms of airway resistance. For this purpose, an apparatus dedicated to the measurement of airway resistance (K.K. Medical Agent) was employed. Measurement includes setting a guinea pig in a test chamber under a not-anesthetized condition, applying sinusoidal pressure waves of 30 Hz components to a part below the neck of the animal from the back side of the chamber, measuring respiratory waves of 30 Hz components leaking through the mouth (volume of 30 Hz air flow passing through the respiratory tract) in front of the neck, and calculating airway resistance mechanically. Measurement was carried out immediately prior to the first drug treatment (24 hours before elicitation), just prior to elicitation, 10 minutes, 1, 2, 4, 6, and 8 hours post-elicitation.
It was visually observed by a person carrying out said test in terms, of the appearance of cyanosis or suffocative death (asthmatic death) due to respiratory obstruction.
Guinea pigs were sensitized with ovalbumin and asthma was induced on Day 7 after final sensitization in the same manner as in Example 20. The number of animals employed in the experiment was set to the extent there are at least 6 as individuals escaping asthmatic death (8 to 11 animals/group). In the same manner as in Example 20, the animals were measured for airway resistance mechanically and each percent change (%) in airway resistance was calculated (each value just prior to elicitation was set as 100%). Each percent amelioration in airway resistance was calculated from the percent changes in airway resistance according to the following formula: Amelioration in Airway Resistance (%) = 1 -[((Percent Change in Airway Resistance after Drug-Administration) - (Value just prior to Challenge (100)))/((Percent Change in Airway Resistance after Solvent-Administration) - (Value just prior to Challenge (100)))]× 100 [formula]

[3] = asthmatic death due to cyanosis within several minutes after elicitation, Compound No. 130 15 mg/kg s.c., prednisolone 10 mg/kg orally, 24 and 2 hours prior to elicitation

Compound: CNC(=O)[C@H](Cc1ccc(NC(=N)N)cc1)NC(=O)[C@H](CC(C)C)C(CCCc1ccccc1)C(=O)NO (single isomer, unassigned) [Compound No. 130, N-[4-(N-Hydroxyamino)-2(R)-isobutyl-3(R or S)-(3-phenyltrimethylene)succinyl)-L-4'-guanidophenylalanine-N-methylamide 1 acetate]
- development of auricle edemas (FIG. 13) ([1]; 10 µL per side painted on right auricle 0.5 hr prior to and 6 hours after edema-induction, 24 hours after induction): amelioration of auricle edemas
- effect of the compound alone on auricles (FIG. 13) ([1]; unsensitized mice, 10 µL per side painted twice): almost free of swelling and/or thinning
- airway resistance (FIG. 12) ([2]; 15 mg/kg s.c. 24 hours and 2 hours prior to elicitation, IAR 1 hour, LAR 6 hours post-elicitation): significant reduction of the increased airway resistance
- % Mortality [2, 3]: 0.0%
- (Dead Animals)/(Tested Animals) [2, 3]: 0/10
